Measured values as given in ChEMBL document CHEMBL3885861, “Open TG-GATES”.

Species on record: Rattus norvegicus
Test: Open TG-GATES - Regimen: Single
Assay type: toxicity, organism-based, Sprague-Dawley
Parameters: regimen Single, gender Male, age 6 weeks
Conditions: in vivo, po, 0 mg/kg, route gavage, dose level Control; for APTT / Bas / Eos / Fbg / Hb / Ht / Lym / MCH / MCV / Mono / Neu / PT / Plat / RBC / Ret / WBC: tissue Blood; for KIDNEY_L / KIDNEY_R / KIDNEY_TOTAL: tissue Kidney; for LIVER: tissue Liver; for ALP / ALT / AST / BUN / CRE / Ca / Cl / DBIL / GLC / IP / K / LDH / Na / PL / RALB / TBIL / TG / TP / gamma-GTP: tissue Plasma

## NC(=O)N1c2ccccc2C=Cc2ccccc21 [CARBAMAZEPINE]
3 h
  TERMINAL_BW: 216.5 g
  APTT: 20 s
  Bas: 0%
  Eos: 1%
  Fbg: 213.8 mg/dL
  Hb: 13.4 g/dL
  Ht: 38.6%
  Lym: 80%
  MCH: 21.9 pg
  MCV: 63.2 fL
  Mono: 2%
  Neu: 16%
  PT: 12.4 s
  Plat: 131 x10_4/uL
  RBC: 611.8 x10_4/ul
  Ret: 6.3%
  WBC: 106.8 x10_2/uL
  KIDNEY_L: 1 g
  KIDNEY_R: 0.9 g
  KIDNEY_TOTAL: 1.9 g
  LIVER: 10 g
  ALP: 846.4 IU/L
  ALT: 33 IU/L
  AST: 64.6 IU/L
  BUN: 11.6 mg/dL
  CRE: 0.4 mg/dL
  Ca: 10.7 mg/dL
  Cl: 103 meq/L
  DBIL: 0.082 mg/dL
  GLC: 199.2 mg/dL
  IP: 9 mg/dL
  K: 3.6 meq/L
  LDH: 176.6 IU/L
  Na: 141.2 meq/L
  PL: 131.8 mg/dL
  RALB: 3.3 g/dL
  TBIL: 0.1 mg/dL
  TG: 66.2 mg/dL
  TP: 5.4 g/dL
  gamma-GTP: 0.8 IU/L
6 h
  TERMINAL_BW: 213.8 g
  APTT: 19.3 s
  Bas: 0%
  Eos: 1%
  Fbg: 220.2 mg/dL
  Hb: 13.7 g/dL
  Ht: 40%
  Lym: 77%
  MCH: 21.3 pg
  MCV: 62.5 fL
  Mono: 3.2%
  Neu: 17.6%
  PT: 12.5 s
  Plat: 115.6 x10_4/uL
  RBC: 640.4 x10_4/ul
  Ret: 6.6%
  WBC: 94.2 x10_2/uL
  KIDNEY_L: 1 g
  KIDNEY_R: 1 g
  KIDNEY_TOTAL: 2 g
  LIVER: 9.2 g
  ALP: 858.4 IU/L
  ALT: 37 IU/L
  AST: 65.6 IU/L
  BUN: 8.8 mg/dL
  CRE: 0.4 mg/dL
  Ca: 10.5 mg/dL
  Cl: 103 meq/L
  DBIL: 0.08 mg/dL
  GLC: 196.8 mg/dL
  IP: 9.4 mg/dL
  K: 3.9 meq/L
  LDH: 175.2 IU/L
  Na: 140.2 meq/L
  PL: 133.4 mg/dL
  RALB: 3.3 g/dL
  TBIL: 0.1 mg/dL
  TG: 60.4 mg/dL
  TP: 5.5 g/dL
  gamma-GTP: 1.4 IU/L
9 h
  TERMINAL_BW: 211.7 g
  APTT: 22.5 s
  Bas: 0%
  Eos: 1%
  Fbg: 220 mg/dL
  Hb: 13 g/dL
  Ht: 38.2%
  Lym: 78.8%
  MCH: 20.9 pg
  MCV: 61.5 fL
  Mono: 2.2%
  Neu: 17.5%
  PT: 13.2 s
  Plat: 119.7 x10_4/uL
  RBC: 621.8 x10_4/ul
  Ret: 6.6%
  WBC: 89.4 x10_2/uL
  KIDNEY_L: 1 g
  KIDNEY_R: 1 g
  KIDNEY_TOTAL: 2 g
  LIVER: 9.3 g
  ALP: 824.8 IU/L
  ALT: 32 IU/L
  AST: 63.8 IU/L
  BUN: 9.8 mg/dL
  CRE: 0.4 mg/dL
  Ca: 10.3 mg/dL
  Cl: 102 meq/L
  DBIL: 0.07 mg/dL
  GLC: 202.8 mg/dL
  IP: 9.3 mg/dL
  K: 3.9 meq/L
  LDH: 170.4 IU/L
  Na: 140.2 meq/L
  PL: 127 mg/dL
  RALB: 3.3 g/dL
  TBIL: 0.1 mg/dL
  TG: 47 mg/dL
  TP: 5.3 g/dL
  gamma-GTP: 1 IU/L
24 h
  TERMINAL_BW: 225.7 g
  APTT: 21.9 s
  Bas: 0%
  Eos: 0.8%
  Fbg: 215.6 mg/dL
  Hb: 13.7 g/dL
  Ht: 40.7%
  Lym: 79.8%
  MCH: 21.5 pg
  MCV: 63.9 fL
  Mono: 2.4%
  Neu: 15.8%
  PT: 12.1 s
  Plat: 117.9 x10_4/uL
  RBC: 637.2 x10_4/ul
  Ret: 6%
  WBC: 90.1 x10_2/uL
  KIDNEY_L: 1 g
  KIDNEY_R: 1 g
  KIDNEY_TOTAL: 2 g
  LIVER: 10.4 g
  ALP: 990.6 IU/L
  ALT: 39.2 IU/L
  AST: 70.4 IU/L
  BUN: 15.6 mg/dL
  CRE: 0.4 mg/dL
  Ca: 10.6 mg/dL
  Cl: 102.4 meq/L
  DBIL: 0.088 mg/dL
  GLC: 207 mg/dL
  IP: 7.9 mg/dL
  K: 4 meq/L
  LDH: 199 IU/L
  Na: 140.4 meq/L
  PL: 146.2 mg/dL
  RALB: 3.4 g/dL
  TBIL: 0.1 mg/dL
  TG: 93.6 mg/dL
  TP: 5.6 g/dL
